US11111251B2, “Positive allosteric modulators of the muscarinic acetylcholine receptor M1” (Vanderbilt University, priority 2016, dated 2021)

Target: T1, human mAChR M1 (Homo sapiens, UniProt P11229)
T1 sequence (P11229 1-460): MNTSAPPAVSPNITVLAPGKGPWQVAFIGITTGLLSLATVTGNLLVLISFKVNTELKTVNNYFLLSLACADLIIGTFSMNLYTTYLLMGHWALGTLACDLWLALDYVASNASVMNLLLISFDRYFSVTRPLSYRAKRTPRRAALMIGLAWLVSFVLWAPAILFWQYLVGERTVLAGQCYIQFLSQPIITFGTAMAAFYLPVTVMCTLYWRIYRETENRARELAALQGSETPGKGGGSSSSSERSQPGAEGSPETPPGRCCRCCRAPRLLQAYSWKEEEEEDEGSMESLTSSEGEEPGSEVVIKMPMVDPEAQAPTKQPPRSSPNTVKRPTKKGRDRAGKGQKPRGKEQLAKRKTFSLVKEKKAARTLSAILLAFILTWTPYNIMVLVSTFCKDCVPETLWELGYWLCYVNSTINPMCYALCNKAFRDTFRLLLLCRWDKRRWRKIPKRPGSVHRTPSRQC
Test: mAChR M1 cell-based functional assay: calcium mobilization, positive allosteric modulator mode (increase in EC20 acetylcholine response)
Conditions: Table 2, human M1; for EC50: read-out: Human M1 EC50; for Emax: read-out: Human M1 Emax (%)
Outline: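 PAM potency reflects the concentration-dependent increase in calcium response to an EC20 acetylcholine challenge, given 144 s into a 300 s read after compound addition at 4 s (EC80 follows at 230 s). Cells were hM1-expressing CHO-K1, loaded 50 min with Fluo-4 AM. Curves used 11 points at 1:3 dilutions and four-parameter logistic fitting.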

Row | EC50 [nM] | Emax [%] | Structure (SMILES)
1 | 2290 | 59.5 | O=C(N[C@H]1CCOC1)c1cc(Cc2ccc(-c3nccs3)cc2)c2sccc2n1 [Compound 369, N-[(3S)-tetrahydrofuran-3-yl]-7-[(4-thiazol-2-ylphenyl)methyl]thieno[3,2-b]pyridine-5-carboxamide]
2 | 400 | 77.7 | CC1COCCC1NC(=O)c1cc(Cc2ccc(-c3nccs3)cc2)c2sccc2n1 (centres unmarked) [Compound 370, N-(3-methyltetrahydropyran-4-yl)-7-[(4-thiazol-2-ylphenyl)methyl]thieno[3,2-b]pyridine-5-carboxamide]
3 | 22.1 | 81.5 | O=C(N[C@H]1COCC[C@@H]1O)c1cc(Cc2ccc(-c3nccs3)cc2)c2sccc2n1 [Compound 371]
4 | 1880 | 75.3 | COCCCNC(=O)c1cc(Cc2ccc(-c3nccs3)cc2)c2sccc2n1 [Compound 372, N-(3-methoxypropyl)-7-[(4-thiazol-2-ylphenyl)methyl]thieno[3,2-b]pyridine-5-carboxamide]
5 | 1420 | 79.6 | COCCNC(=O)c1cc(Cc2ccc(-c3nccs3)cc2)c2sccc2n1 [Compound 373, N-(2-methoxyethyl)-7-[(4-thiazol-2-ylphenyl)methyl]thieno[3,2-b]pyridine-5-carboxamide]
6 | 556 | 73.1 | O=C(NCC1CCOC1)c1cc(Cc2ccc(-c3nccs3)cc2)c2sccc2n1 (centres unmarked) [Compound 374, N-(tetrahydrofuran-3-ylmethyl)-7-[(4-thiazol-2-ylphenyl)methyl]thieno[3,2-b]pyridine-5-carboxamide]
7 | > 10000 | 77.4 | O=C(NCC1CCCCO1)c1cc(Cc2ccc(-c3nccs3)cc2)c2sccc2n1 (centres unmarked) [Compound 375, N-(tetrahydropyran-2-ylmethyl)-7-[(4-thiazol-2-ylphenyl)methyl]thieno[3,2-b]pyridine-5-carboxamide]
8 | 170 | 60.7 | Cn1ccc(-c2ccc(Cc3cc(C(=O)NC4CCOCC4(C)C)nc4ccsc34)cn2)n1 (centres unmarked) [Compound 376, N-(3,3-dimethyltetrahydropyran-4-yl)-7-[[6-(1-methylpyrazol-3-yl)-3-pyridyl]methyl]thieno[3,2-b]pyridine-5-carboxamide]
9 | 412 | 58.7 | CC1CC(NC(=O)c2cc(Cc3ccc(-c4ccn(C)n4)nc3)c3sccc3n2)CC(C)O1 (centres unmarked) [Compound 377, N-(2,6-dimethyltetrahydropyran-4-yl)-7-[[6-(1-methylpyrazol-3-yl)-3-pyridyl]methyl]thieno[3,2-b]pyridine-5-carboxamide]
10 | 167 | 58.9 | Cn1ccc(-c2ccc(Cc3cc(C(=O)NC4CCOC(C)(C)C4)nc4ccsc34)cn2)n1 (centres unmarked) [Compound 378, N-(2,2-dimethyltetrahydropyran-4-yl)-7-[[6-(1-methylpyrazol-3-yl)-3-pyridyl]methyl]thieno[3,2-b]pyridine-5-carboxamide]
11 | 150 | 53.9 | Cn1cc(-c2ccc(Cc3cc(C(=O)NC4CCOCC4(C)C)nc4ccsc34)cc2)cn1 (centres unmarked) [Compound 379, N-(3,3-dimethyltetrahydropyran-4-yl)-7-[[4-(1-methylpyrazol-4-yl)phenyl]methyl]thieno[3,2-b]pyridine-5-carboxamide]
12 | 287 | 64.5 | CC1CC(NC(=O)c2cc(Cc3ccc(-c4cnn(C)c4)cc3)c3sccc3n2)CC(C)O1 (centres unmarked) [Compound 380, N-(2,6-dimethyltetrahydropyran-4-yl)-7-[[4-(1-methylpyrazol-4-yl)phenyl]methyl]thieno[3,2-b]pyridine-5-carboxamide]
13 | 98.1 | 60.4 | Cn1cc(-c2ccc(Cc3cc(C(=O)NC4CCOC(C)(C)C4)nc4ccsc34)cc2)cn1 (centres unmarked) [Compound 381, N-(2,2-dimethyltetrahydropyran-4-yl)-7-[[4-(1-methylpyrazol-4-yl)phenyl]methyl]thieno[3,2-b]pyridine-5-carboxamide]
14 | 386 | 56.6 | O=C(NCC1CCO1)c1cc(Cc2ccc(-c3nccs3)cc2)c2sccc2n1 (centres unmarked) [Compound 382, N-(oxetan-2-ylmethyl)-7-[(4-thiazol-2-ylphenyl)methyl]thieno[3,2-b]pyridine-5-carboxamide]
15 | > 10000 | 30.4 | O=C(NC1CC(F)(F)C1)c1cc(Cc2ccc(-c3nccs3)cc2)c2sccc2n1 [Compound 383]
16 | 1370 | 65.2 | O=C(NCC1CCCO1)c1cc(Cc2ccc(-c3nccs3)cc2)c2sccc2n1 (centres unmarked) [Compound 384, N-(tetrahydrofuran-2-ylmethyl)-7-[(4-thiazol-2-ylphenyl)methyl]thieno[3,2-b]pyridine-5-carboxamide]

Row | EC50 [nM] | Emax [%] | Structure (SMILES)
17 | > 10000 | 41.1 | O=C(NC1CCC(F)(F)CC1)c1cc(Cc2ccc(-c3nccs3)cc2)c2sccc2n1 [Compound 385, N-(4,4-difluorocyclohexyl)-7-[(4-thiazol-2-ylphenyl)methyl]thieno[3,2-b]pyridine-5-carboxamide]
18 | 1910 | 66.1 | CC1CC(NC(=O)c2cc(Cc3ccc(-c4nccs4)cc3)c3sccc3n2)CC(C)O1 (centres unmarked) [Compound 386, N-(2,6-dimethyltetrahydropyran-4-yl)-7-[(4-thiazol-2-ylphenyl)methyl]thieno[3,2-b]pyridine-5-carboxamide]
19 | 583 | 69.5 | O=C(NCC1CCOCC1)c1cc(Cc2ccc(-c3cncs3)cc2)c2sccc2n1 [Compound 387, N-(tetrahydropyran-4-ylmethyl)-7-[(4-thiazol-5-ylphenyl)methyl]thieno[3,2-b]pyridine-5-carboxamide]
20 | 846 | 67.8 | CC1(C)CC(NC(=O)c2cc(Cc3ccc(-c4cncs4)cc3)c3sccc3n2)CCO1 (centres unmarked) [Compound 388, N-(2,2-dimethyltetrahydropyran-4-yl)-7-[(4-thiazol-5-ylphenyl)methyl]thieno[3,2-b]pyridine-5-carboxamide]
21 | 345 | 64.9 | O=C(NC[C@@H]1CCCO1)c1cc(Cc2ccc(-c3nccs3)cc2)c2sccc2n1 [Compound 389, N-[[(2S)-tetrahydrofuran-2-yl]methyl]-7-[(4-thiazol-2-ylphenyl)methyl]thieno[3,2-b]pyridine-5-carboxamide]
22 | 926 | 66.3 | CC1(C)COCCC1NC(=O)c1cc(Cc2ccc(-c3cncs3)cc2)c2sccc2n1 (centres unmarked) [Compound 390, N-(3,3-dimethyltetrahydropyran-4-yl)-7-[(4-thiazol-5-ylphenyl)methyl]thieno[3,2-b]pyridine-5-carboxamide]
23 | 1800 | 73.4 | CC1CC(NC(=O)c2cc(Cc3ccc(-c4cncs4)cc3)c3sccc3n2)CC(C)O1 (centres unmarked) [Compound 391, N-(2,6-dimethyltetrahydropyran-4-yl)-7-[(4-thiazol-5-ylphenyl)methyl]thieno[3,2-b]pyridine-5-carboxamide]
24 | 199 | 65.4 | C[C@@H]1COCC[C@@H]1NC(=O)c1cc(Cc2ccc(-c3cncs3)cc2)c2sccc2n1 [Compound 392, N-[(3S,4S)-3-methyltetrahydropyran-4-yl]-7-[(4-thiazol-5-ylphenyl)methyl]thieno[3,2-b]pyridine-5-carboxamide]
25 | 1340 | 68.7 | C[C@H]1COCC[C@@H]1NC(=O)c1cc(Cc2ccc(-c3cncs3)cc2)c2sccc2n1 [Compound 393, N-[(3R,4S)-3-methyltetrahydropyran-4-yl]-7-[(4-thiazol-5-ylphenyl)methyl]thieno[3,2-b]pyridine-5-carboxamide]
26 | 233 | 65.5 | O=C(NC1CCOCC1)c1cc(Cc2ccc(-c3cncs3)cc2)c2sccc2n1 [Compound 394, N-tetrahydropyran-4-yl-7-[(4-thiazol-5-ylphenyl)methyl]thieno[3,2-b]pyridine-5-carboxamide]
27 | 18.5 | 60.1 | O=C(N[C@H]1CCCC[C@@H]1O)c1cc(Cc2ccc(-c3cncs3)cc2)c2sccc2n1 [Compound 395, N-[(1S,2S)-2-hydroxycyclohexyl]-7-[(4-thiazol-5-ylphenyl)methyl]thieno[3,2-b]pyridine-5-carboxamide]
28 | 1060 | 63 | O=C(NCC1CCOC1)c1cc(Cc2ccc(-c3cncs3)cc2)c2sccc2n1 (centres unmarked) [Compound 396, N-(tetrahydrofuran-3-ylmethyl)-7-[(4-thiazol-5-ylphenyl)methyl]thieno[3,2-b]pyridine-5-carboxamide]
29 | 111 | 59.6 | O=C(N[C@H]1CCC[C@@H]1O)c1cc(Cc2ccc(-c3cncs3)cc2)c2sccc2n1 [Compound 397, N-[(1S,2S)-2-hydroxycyclopentyl]-7-[(4-thiazol-5-ylphenyl)methyl]thieno[3,2-b]pyridine-5-carboxamide]
30 | 438 | 60.9 | O=C(NC1CC2(COC2)C1)c1cc(Cc2ccc(-c3cncs3)cc2)c2sccc2n1 [Compound 398, N-(2-oxaspiro[3.3]heptan-6-yl)-7-[(4-thiazol-5-ylphenyl)methyl]thieno[3,2-b]pyridine-5-carboxamide]
31 | 4310 | 45.1 | O=C(N[C@H]1CCOC1)c1cc(Cc2ccc(-c3cncs3)cc2)c2sccc2n1 [Compound 399, N-[(3S)-tetrahydrofuran-3-yl]-7-[(4-thiazol-5-ylphenyl)methyl]thieno[3,2-b]pyridine-5-carboxamide]
